Patent US20210330606A1, “GLUCOSE CONSUMPTION ACCELERATOR AND GLYCOLYSIS ACCELERATOR” (SHINKO SANGYO Co., Ltd., priority 2018, published 2021)

Test system: Rat-derived fibroblasts (Py-3Y1-S2, subculture strain)
Assay: Glucose consumption of rat-derived fibroblasts (relative value, control = 100)
Format: cell-based
Description: As drugs, 2-amino-1-cyclohexylethanol (Matrix Biochemicals), 2-aminoethanol (Tokyo Chemical Industry Co., Ltd.), 1-amino-2-propanol (Wako Pure Chemical Industries, Ltd.), 2-amino-1-phenylethanol (Tokyo Chemical Industry Co., Ltd.), 1, 3-bis[tris(hydroxymethyl)-methylamino]propane (Tokyo Chemical Industry Co., Ltd.), N-cyclohexylethanolamine (Tokyo Chemical Industry Co., Ltd.), diethanolamine (Wako Pure Chemical Industries, Ltd.), diethylamine (Wako Pure Chemical Industries, Ltd.), dipropylamine (Tokyo Chemical Industry Co., Ltd.), HEPES sodium salt (MP Biomedicals), metoprolol tartrate (Tokyo Chemical Industry Co., Ltd.), morpholine (Wako Pure Chemical Co., Ltd.), octopamine (MP Biomedicals), propylamine (Tokyo Chemical Industry Co., Ltd.), triethylamine (Wako Pure Chemical Co., Ltd.), timolol maleate (Wako Pure Chemical Industries, Ltd.) and tris(hydroxymethyl)aminomethane (Wako Pure Chemical Industries, Ltd.) were used. Each drug was dissolved in distilled water to prepare a sample.
In the culture, DMEM (Nissui Pharmaceutical Co., Ltd.) was used as a culture medium. […] As a control of the drug, the culture was performed in the same manner except that distilled water to which the drug was not added was added to the culture solution instead of the sample.
After the addition of the drug, the glucose concentration of each of the culture solutions was measured immediately after the start of the culture and after the completion of the culture. The glucose concentration was measured using a glucose assay kit (Waco). Then, the glucose concentration after the completion of the culture was divided by the glucose concentration immediately after the start of the culture (5.6 mmol per liter) to calculate the glucose consumption.
The fibroblasts were cultured. […] Streptozotocin, alloxan, and nicotinamide are drugs all known to produce symptoms of diabetes when administered to the body.
Next, samples of streptozotocin, alloxan, and nicotinamide plus 2-amino-1-phenylethanol (2-A-1-P) were prepared in the same manner. The concentration of 2-A-1-P was 1 mg/ml. The relative value of the glucose consumption was calculated in the same manner.
The fibroblasts were cultured.
The concentration of 2-A-1-P was 0.5 mg/ml. The relative value of the glucose consumption was calculated in the same manner.

NCC(O)c1ccccc1 (centres unmarked) [2-amino-1-phenylethanol] was tested, and the “relative value of glucose consumption” value (Example 2, fibroblasts, drug 0.1 mg/ml, control = 100) was “about 130”, the “relative value of glucose consumption” value (Example 2, fibroblasts, drug 0.25 mg/ml, control = 100) was “about 140” and the “relative value of glucose consumption” value (Example 2, fibroblasts, drug 0.5 mg/ml, control = 100) was “about 160”. For the same molecule, the “relative value of glucose consumption” value (Example 3, 2-A-1-P 1 mg/ml in addition to alloxan 1 mg/ml) was at least 100, the “relative value of glucose consumption” value (Example 3, 2-A-1-P 1 mg/ml in addition to nicotinamide 1 mg/ml) was at least 100 and the “relative value of glucose consumption” value (Example 3, 2-A-1-P 1 mg/ml in addition to streptozotocin 1 mg/ml) was at least 100. The “relative value of glucose consumption” value (Example 4, 2-A-1-P 0.5 mg/ml in addition to V2O5) was “about 140”, the “relative value of glucose consumption” value (Example 4, 2-A-1-P 0.5 mg/ml in addition to concanavalin A 100 μg/ml) was “about 150” and the “relative value of glucose consumption” value (Example 4, 2-A-1-P 0.5 mg/ml in addition to vanadium) was “about 145”. For the same molecule, the “relative value of glucose consumption” value (fibroblasts, drug 0.5 mg/ml, 12 to 24 hours, control = 100 (FIG. 1A, 2A)) was “significantly increased glucose consumption” and the “relative value of glucose consumption” value (fibroblasts, drug 1 mg/ml, 12 to 24 hours, control = 100 (FIG. 1B, 2B)) was “significantly increased glucose consumption”.
